According to US7632645B1, “EGF receptor transactivation by G-protein-coupled receptors requires metalloproteinase cleavage of proHB-EGF” (Max-Planck-Gesellschaft zur forderung der Wissenschaften …, priority 1999, dated 2009):

Experiments:
[1] = system: SHC; assay: SHC tyrosine phosphorylation in Rat-1/EP-R cells; type: cell-based; settings: tyrphostin pretreatment (AG1478 250 nM, AG1295 1 μM), FIG. 1e
[2] = system: human EGFR (HERc); assay: Intercellular transactivation: HERc tyrosine phosphorylation in Rat-1/M1R + Rat-1/HERc co-culture; type: cell-based; settings: carbachol 1 mM; for effect on EGFR (HERc) tyrosine phosphorylation in response to M1R agonist carbachol: confluent co-cultures of Rat-1/M1R and Rat-1/HERc cells, preincubation, FIG. 2b, 2c
[3] = system: proHB-EGF; assay: Flow cytometry of cell surface proHB-EGF in non-transfected COS-7 cells; type: cell-based; settings: within 10 minutes, FIG. 4c
[4] = system: EGFR; assay: EGFR tyrosine phosphorylation in PC-3 prostate carcinoma cells; type: cell-based, human; settings: PC-3 cells starved for 36 hours; 3 minutes stimulation; FIG. 4f
[5] = system: proHB-EGF; type: cell-based

Q: How did the “effect on SHC tyrosine phosphorylation following thrombin stimulation” value [1] turn out when `COc1cc2ncnc(Nc3cccc(Cl)c3)c2cc1OC` [AG1478] was run?
A: completely blocked

Q: For heparitinase, which “effect on EGFR (HERc) tyrosine phosphorylation in response to M1R agonist carbachol” value [2] is on record?
A: completely inhibited

Q: Which “content of cell surface proHB-EGF after addition of agonist” value [3] does the source give for “EGF: epidermal growth factor, EGFR ligand used as control stimulus (NSDSECPLSHDGYCLHDGVCMYIEALDKYACNCVVGYIGERCQYRDLKWWELR; UniProt P01133 971-1023, looked up)” here?
A: no effect

Q: What about the “induction of tyrosine phosphorylation of the EGFR by agonist” value [4] of the same compound?
A: induce tyrosine phosphorylation

Q: Which results are given for `CCCCCCCCCCCCCC(=O)O[C@@H]1[C@@H](C)[C@@]2(O)[C@@H](C=C(CO)C[C@]3(O)C(=O)C(C)=C[C@@H]23)[C@@H]2C(C)(C)[C@]12OC(C)=O` [TPA, tetradecanoyl-phorbol-13-acetate]?
A: content of cell surface proHB-EGF after addition of agonist [3]: reduced; induction of tyrosine phosphorylation of the EGFR by agonist [4]: induce tyrosine phosphorylation

Q: How did the “effect on EGFR (HERc) tyrosine phosphorylation in response to M1R agonist carbachol” value [2] turn out when `[O-][Cl+2]([O-])O` [chlorate] was run?
A: completely inhibited

Q: lysophosphatidic acid [LPA] was tested. Which “content of cell surface proHB-EGF after addition of agonist” value [3] did it give?
A: reduced

Q: Which “effect on SHC tyrosine phosphorylation following thrombin stimulation” value [1] does the source give for `Cc1cc2ncc(-c3ccccc3)nc2cc1C` [AG1295] here?
A: remained unaffected

Q: With `C[N+](C)(C)CCOC(N)=O` [carbachol] as the compound, how does the “induction of tyrosine phosphorylation of HERc by agonist” value ([2]; Rat-1/M1R + Rat-1/HERc co-culture, FIG. 2a) read?
A: rapidly induced tyrosine phosphorylation

Q: What about the “proteolytic processing of membrane-anchored proHB-EGF upon agonist stimulation” value [5] of the same compound?
A: rapid breakdown
